Laboratory results as given in article PMC11413854, “Reversible Control of Native GluN2B-Containing NMDA Receptors with Visible Light” (ACS Chemical Neuroscience, 2024).
Several values for one entry are separate records, joined by “and”; a condition that tells them apart may be missing. Equal values may be shown once.

Columns and labels:
[1] = Thermal stability of the PSS in the dark and fatigability over illumination cycles; format: physicochemical; details: for A(320 nm): Sup. Fig. 1C; for A(371 nm): Sup. Fig. 1G; for A(334 nm): Sup. Fig. 1K
Source text: , we focused on the three key properties allowing the use of azobenzenes in biological systems: (i) wavelengths for trans-to-cis and cis-to-trans conversions; (ii) compound thermalstability, i.e., half-life of the cis isomer in the dark; and (iii) fatigability, i.e., the number of illumination cycles that the molecule can undergo without degradation. To this aim, […] recording solution (Ringer pH 7.3; see Methods) either in the dark (absence of illumination) or after illumination by light wavelengths ranging from 350 to 580 nm (Figures 2B and S1M). In the dark (black curve in Figure 2B), the spectrum was characteristic of a trans isomer.[32] Application of UV light at a wavelength close to the main absorption peak of the trans form (365 or 350 nm) gave a completely different spectrum (violet curves in Figure 2B), characteristic of azobenzenes in their cis configuration.[32] […] states (PSS) containing 100% trans in the dark, 82% cis and 18% residual trans after illumination at 365 nm (365 nm PSS, violet curve in Figure 2C), and 91% cis and 9% residual trans after illumination at 350 nm (350 nm PSS, lavender curve in Figure 2C). […] from 435 to 550 nm gave equivalent cis-to-trans conversions with 435 and 550 nm yielding slightly stronger conversions (∼70% trans after illumination at 435 and 550 nm calculated from UV–visible spectra at λtrans = 329 nm, Figures 2B and S1N; 550 nm PSS of 69% trans and 31% cis measured by HPLC, Figure 2C, green trace). 550 nm was chosen as the optimal wavelength since green light is less harmful for cells than lights of shorter wavelengths. We then tested the thermal stability of the cis form in the dark (in the absence of illumination). […]
Thermal stability of the cis state (365 nm PSS) was measured by irradiating the solution with 365 nm light during 10 min, then letting it relax in the dark, at room temperature (20–22 °C), inside the spectrophotometer. Spectra were acquired at regular intervals, up to 1 day, after irradiation.

[2] = Photostationary state (cis/trans) composition in solution by HPLC, UV-vis or 1H NMR; format: physicochemical; details: for % of trans in solution: Fig. 5J; for % of cis in solution: Figure 5E
Source text: To characterize the photochemical properties of OptoNAM-3, we focused on the three key properties allowing the use of azobenzenes in biological systems: (i) wavelengths for trans-to-cis and cis-to-trans conversions; (ii) compound thermalstability, i.e., half-life of the cis isomer in the dark; and (iii) fatigability, i.e., the number of illumination cycles that the molecule can undergo without degradation. To this aim, we acquired UV–visible absorption spectra of OptoNAM-3 diluted in Xenopus oocyte recording solution (Ringer pH 7.3; see Methods) either in the dark (absence of illumination) or after illumination by light wavelengths ranging from 350 to 580 nm (Figures 2B and S1M). In the dark (black curve in Figure 2B), the spectrum was characteristic of a trans isomer.[32] Application of UV light at a wavelength close to the main absorption peak of the trans form (365 or 350 nm) gave a completely different spectrum (violet curves in Figure 2B), characteristic of azobenzenes in their cis configuration.[32] HPLC analysis of OptoNAM-3 in solution identified photostationary states (PSS) containing 100% trans in the dark, 82% cis and 18% residual trans after illumination at 365 nm (365 nm PSS, violet curve in Figure 2C), and 91% cis and 9% residual trans after illumination at 350 nm (350 nm PSS, lavender curve in Figure 2C). […] Irradiation of OptoNAM-3 365 nm PSS with wavelengths from 435 to 550 nm gave equivalent cis-to-trans conversions with 435 and 550 nm yielding slightly stronger conversions (∼70% trans after illumination at 435 and 550 nm calculated from UV–visible spectra at λtrans = 329 nm, Figures 2B and S1N; 550 nm PSS of 69% trans and 31% cis measured by HPLC, Figure 2C, green trace). 550 nm was chosen as the optimal wavelength since green light is less harmful for cells than lights of shorter wavelengths. We then tested the thermal stability of the cis form in the dark (in the absence of illumination). […] This very high stability is interesting because it avoids the prolonged use of light to maintain OptoNAM-3 in the desired configuration. OptoNAM-3 could finally endure many illumination cycles without degradation (Figure 2E).
UV–vis absorbance spectra were measured from in 1 cm long quartz cuvettes on a NanoPhotometer NP80 spectrometer (Implen, Germany). We used solutions of 10, 50, or 100 μM OptoNAMs diluted in Ringer at pH 7.3 (for TEVC extracellular recording solution, see below) from the 50 mM stock solution in DMSO. Photostationary states of OptoNAMs in Ringer for different illumination wavelengths were obtained by continuous illumination with multiwavelength LEDs (pE-2 and pE-4000, CoolLED, UK [power ∼75 mW]) or photochemical reactor RPR-100 Rayonet US (power ∼2 mW) for 350 nm, until no further change in the absorption spectra could be observed. For all irradiation wavelengths tested, 10 min illumination was sufficient to reach the steady state.
The cis–trans compositions of OptoNAM-3 in the dark and after illumination by 365, 350, and 550 nm were determined by HPLC using the relative integrated areas of the cis and trans peaks at the isosbestic point at 280 nm, […], considering that the sum of integrated area for two peaks is 100%. We checked that ratios measured at the isosbestic point at 390 nm were similar. Analytical HPLC was performed on an Agilent 1200 series equipped with a quaternary pump using a Nucleodur C18 HTech column from Macherey-Nagel Inc. (particle size 3 μm, 150 × 4.6 mm column). The compounds were eluted with a flow of 1 mL/min using a gradient of acetonitrile (0–100% over 15 min) in water, with both solvents containing 0.1% TFA. Detection was performed at 220, 280, and 390 nm.
The dark and 365 nm PSS were furthermore characterized by ^1H NMR spectroscopy with the OptoNAMs diluted in DMSO-d6 and the relative abundance of trans and cis isomers quantified using ^1H NMR spectra. […]

[3] = Ringer pH 7.3, room temperature
[4] = physiological buffer, UV-visible, measured at λtrans
[5] = HPLC, physiological aqueous buffer
[6] = in solution, UV-visible spectra
[7] = in solution, calculated from UV-visible spectra at 329 nm

In the case of `Nc1ccnc(/N=N/c2ccccc2)c1` [OptoNAM-1, (E)-2-(phenyldiazenyl)pyridin-4-amine], the “thermal stability of the 365 nm PSS (mostly cis) in the dark: time without change of spectra” value [1, 3] is reported as ≥ 60 min, the “A(320 nm)” value ([1]; 365 nm (t=0)) is reported as 0.092 and the “A(320 nm)” value ([1]; 365 nm (t=2 min)) is reported as 0.093. For the same molecule, the “A(320 nm)” value ([1]; 365 nm (t=5min)) was 0.093, the “A(320 nm)” value ([1]; 365 nm (t=10 min)) was 0.093 and the “A(320 nm)” value ([1]; 365 nm (t=20min)) was 0.093. The “A(320 nm)” value ([1]; 365 nm (t=40min)) was 0.094, the “A(320 nm)” value ([1]; 365 nm (t=60min)) was 0.094 and the “A(320 nm)” value ([1]; dark) was 0.207. The “trans after 440 nm irradiation of the 365 nm PSS” value [2, 4] was ~ 75%.
With `Cc1cc(N)nc(/N=N/c2ccccc2)c1` [OptoNAM-2, (E)-4-methyl-6-(phenyldiazenyl)pyridin-2-amine] the “thermal stability of the 365 nm PSS (mostly cis) in the dark: time without change of spectra” value [1, 3] was ≥ 60 min, the “A(371 nm)” value ([1]; 365 nm (t=0)) was 0.257 and the “A(371 nm)” value ([1]; 365 nm (t=1 min)) was 0.255. The “A(371 nm)” value ([1]; 365 nm (t=5min)) was 0.256, the “A(371 nm)” value ([1]; 365 nm (t=10 min)) was 0.255 and the “A(371 nm)” value ([1]; 365 nm (t=20 min)) was 0.257. The “A(371 nm)” value ([1]; 365 nm (t=40min)) was 0.258, the “A(371 nm)” value ([1]; 365 nm (t=60min)) was 0.260 and the “trans after 490 nm irradiation of the 365 nm PSS” value [2, 4] was ~ 52%.
In the case of `CS(=O)(=O)Nc1ccc2nc(Cc3ccc(/N=N/c4ccccc4)cc3)[nH]c2c1` [OptoNAM-4, (E)-N-(2-(4-(phenyldiazenyl)benzyl)-1H-benzo[d]imidazol-6-yl)methanesulfonamide], the “thermal stability of the 365 nm PSS (mostly cis) in the dark: time without change of spectra” value [1, 3] is reported as “only little change”, the “A(334 nm)” value ([1]; 365 nm (t=0)) is reported as 0.207 and the “A(334 nm)” value ([1]; 365 nm (t=5 min)) is reported as 0.200. The “A(334 nm)” value ([1]; 365 nm (t=15 min)) was 0.206, the “A(334 nm)” value ([1]; 365 nm (t=30min)) was 0.211 and the “A(334 nm)” value ([1]; 365 nm (t=40 min)) was 0.208. The “A(334 nm)” value ([1]; 365 nm (t=60min)) was 0.242 and the “trans after 440 nm irradiation of the 365 nm PSS” value [2, 4] was 100%.
In the case of `c1ccc(/N=N/c2ccc(CCNc3ccncc3)cc2)cc1` [OptoNAM-3, (E)-N-(4-(Phenyldiazenyl)phenethyl)pyridin-4-amine], the “thermal stability of the 550 nm PSS in the dark: time without change of spectrum” value [1, 3] is reported as ≥ 24 h, the “cycles of UV/green illumination without degradation” value ([1]; absorbance at 329 nm) is reported as ≥ 10 cycles and the “365 nm PSS, cis, in DMSO” value ([2]; DMSO, 1H NMR) is reported as 90%. The “% of trans in solution” value ([2]; 365 nm) was 18.030%, the “% of trans in solution” value ([2]; 385 nm) was 53.274% and the “% of trans in solution” value ([2]; 435 nm) was 71.738%. For the same molecule, the “% of trans in solution” value ([2]; 460 nm) was 68.781%, the “% of trans in solution” value ([2]; 490 nm) was 68.847% and the “% of trans in solution” value ([2]; 525 nm) was 62.601%. For the same molecule, the “% of trans in solution” value ([2]; 550 nm) was 70.739%, the “% of trans in solution” value ([2]; 580 nm) was 68.208% and the “% of cis in solution” value ([2]; 365 nm) was 82.000%. For the same molecule, the “% of cis in solution” value ([2]; 385 nm) was 48.439%, the “% of cis in solution” value ([2]; 435 nm) was 30.261% and the “% of cis in solution” value ([2]; 460 nm) was 30.902%. The “% of cis in solution” value ([2]; 490 nm) was 32.185%, the “% of cis in solution” value ([2]; 525 nm) was 29.192% and the “% of cis in solution” value ([2]; 550 nm) was 27.267%. For the same molecule, the “% of cis in solution” value ([2]; 580 nm) was 25.128%, the “550 nm PSS, cis” value ([2]; HPLC) was 31% and the “550 nm PSS, trans” value ([2]; HPLC) was 69%. The “PSS in the dark, trans” value ([2]; HPLC, aqueous solution) was 100%, the “350 nm PSS, cis” value [2, 5] was 91% and the “350 nm PSS, residual trans” value [2, 5] was 9%. For the same molecule, the “365 nm PSS, residual trans” value [2, 5] was 18%, the “365 nm PSS, cis” value ([2]; HPLC, physiological aqueous buffer (free OptoNAM-3)) was 82% and the “cis after 460 nm illumination of the dark PSS” value [2, 6] was ~31%. The “cis after 550 and 580 nm illumination of the dark PSS” value [2, 6] was ~30%, the “trans after 460 nm illumination of the 365 nm PSS” value [2, 6] was 69% and the “trans after 435 nm illumination of the 365 nm PSS” value [2, 7] was ~70% and 72%. The “trans after 550 nm illumination of the 365 nm PSS” value [2, 7] was ~70%.
